The values below come from US7902227B2, “C-7 isoxazolinyl quinolone / naphthyridine derivatives useful as antibacterial agents” (Janssen Pharmaceutica NV., priority 2008, dated 2011).

Common to all, as to assay type: cell-based
Test [1] relates to Streptococcus pneumoniae ATCC 49619. Description: In vitro antibacterial activity (MIC), microdilution broth method (NCCLS), strain E. To be noted: ATCC49619, 35° C., 16-20 hours. Here is the method:
(§1) Minimal inhibitory concentration (MIC) has been an indicator of in vitro antibacterial activity widely used in the art. The in vitro antimicrobial activity of representative compounds of the present invention was determined by the microdilution broth method following the test method from the National Committee for Clinical Laboratory Standards (NCCLS). This method is described in the NCCLS Document M7-A4, Vol. 17, No. 2, “Methods for Dilution Antimicrobial Susceptibility Test for Bacteria that Grow Aerobically—Fourth Edition”, which is incorporated herein by reference.
(§2) In this method two-fold serial dilutions of drug in cation adjusted Mueller-Hinton broth are added to wells in microdilution trays. The test organisms are prepared by adjusting the turbidity of actively growing broth cultures so that the final concentration of test organism after it is added to the wells is approximately 5×10^4 CFU/well.
(§3) Following inoculation of the microdilution trays, the trays are incubated at 35° C. for 16-20 hours and then read. […] The amount of growth in the wells containing the test compound is compared with the amount of growth in the growth-control wells (no test compound) used in each tray. As set forth in Table 4, representative compounds of the present invention were tested against a variety of pathogenic bacteria resulting in a range of activities depending on the organism tested.
(In broth dilution the organism is exposed to a series of concentrations in liquid medium.)

Test [2] deals with strain C, fluoroquinolone-resistant clinical isolate of Streptococcus pneumoniae. Description: In vitro antibacterial activity (MIC), microdilution broth method (NCCLS), strain C. To be noted: read-out: In vitro Antibacterial Activity MIC, C. Here is the method: as §1, §2, §3
In test [3] the test system is Staphylococcus aureus OC4172. Description: In vitro antibacterial activity (MIC), microdilution broth method (NCCLS), strain A. Conditions: cation adjusted Mueller-Hinton broth, 35° C., 16-20 hours. Here is the method:
as §1, §2, §3

Test [4] has as its system strain D, fluoroquinolone-resistant clinical isolate of Streptococcus pneumoniae. Description: In vitro antibacterial activity (MIC), microdilution broth method (NCCLS), strain D. To be noted: read-out: In vitro Antibacterial Activity MIC, D. Here is the method: as §1, §2, §3
Test [5] has as its system strain B, fluoroquinolone-resistant clinical isolate of Streptococcus pneumoniae. Description: In vitro antibacterial activity (MIC), microdilution broth method (NCCLS), strain B. To be noted: read-out: In vitro Antibacterial Activity MIC, B. Here is the method: as §1, §2, §3

Values after ≈ are worked out from the molar mass of the structure shown.

For the compound `NCC1=NOC2CN(c3nc4c(cc3F)c(=O)c(C(=O)O)cn4-c3ccc(F)cc3F)CC12` (stereo not shown) [ID No. 200, 7-(3-Aminomethyl-3a,4,6,6a-tetrahydro-pyrrolo[3,4-d]isoxazol-5-yl)-1-(2,4-difluoro-phenyl)-6-fluoro-4-oxo-1,4-dihydro-[1,8]naphthyridine-3-carboxylic acid], the MIC (commonly the least concentration at which growth counts as inhibited) was 1 µg/mL (≈ 2.18 µM) in test [1]; more than 16 µg/mL in test [2]; 0.12 µg/mL (≈ 0.261 µM) in test [3]; more than 16 µg/mL in test [4]; more than 16 µg/mL in test [5].

Turning to `COc1c(N2C[C@@H]3ON=C(c4ccccn4)[C@@H]3C2)ccc2c(=O)c(C(=O)O)cn(C3CC3)c12` (relative stereo) [ID No. 150, 7-[cis-3-(2-pyridyl)-3a,4,6,6a-tetrahydropyrrolo[3,4-d]isoxazol-5-yl]-1-cyclopropyl-8-methoxy-4-oxo-1,4-dihydroquinoline-3-carboxylic acid], the MIC was 1 µg/mL (≈ 2.24 µM) in test [1]; 8 µg/mL (≈ 17.9 µM) in test [2]; 0.06 µg/mL (≈ 0.134 µM) in test [3]; 8 µg/mL (≈ 17.9 µM) in test [4]; more than 16 µg/mL in test [5].

As to `COc1c(N2C[C@@H]3ON=C(c4ccc(C(F)(F)F)nc4)[C@@H]3C2)c(F)cc2c(=O)c(C(=O)O)cn(C3CC3)c12` (relative stereo) [ID No. 121, 7-[cis-3-(6-Trifluoromethyl-3-pyridyl)-3a,4,6,6a-tetrahydropyrrolo[3,4-d]isoxazol-5-yl]-1-cyclopropyl-8-methoxy-6-fluoro-4-oxo-1,4-dihydroquinoline-3-carboxylic acid], the MIC in test [1] is 4 µg/mL (≈ 7.51 µM); in test [2], more than 16 µg/mL; in test [3], 0.25 µg/mL (≈ 0.47 µM); in test [4], 8 µg/mL (≈ 15 µM); in test [5] it was 0.16 µg/mL (≈ 0.3 µM).

On to `O=C(O)c1cn(-c2ccc(F)cc2F)c2nc(N3CC4ON=C(CN5C(=O)c6ccccc6C5=O)C4C3)c(F)cc2c1=O` (stereo not shown) [ID No. 108, 1-(2,4-Difluoro-phenyl)-7-[3-(1,3-dioxo-1,3-dihydro-isoindol-2-ylmethyl)-3a,4,6,6a-tetrahydro-pyrrolo[3,4-d]isoxazol-5-yl]-6-fluoro-4-oxo-1,4-dihydro-[1,8]naphthyridine-3-carboxylic acid], for which the minimal inhibitory concentration (MIC) in test [1] is 8 µg/mL (≈ 13.6 µM); in test [2], more than 16 µg/mL; in test [3], 0.25 µg/mL (≈ 0.424 µM); in test [4], more than 16 µg/mL; in test [5], more than 16 µg/mL.

Take `O=C(O)c1cn(C2CC2)c2nc(N3CC4ON=C(c5ccc(C(F)(F)F)nc5)C4C3)c(F)cc2c1=O` (stereo not shown) [ID No. 112, 1-Cyclopropyl-6-fluoro-4-oxo-7-[3-(6-trifluoromethyl-pyridin-3-yl)-3a,4,6,6a-tetrahydro-pyrrolo[3,4-d]isoxazol-5-yl]-1,4-dihydro-[1,8]naphthyridine-3-carboxylic acid]: the MIC in test [1] was 2 µg/mL (≈ 3.97 µM); in test [2], more than 16 µg/mL; in test [3], 0.25 µg/mL (≈ 0.497 µM); in test [4], 8 µg/mL (≈ 15.9 µM); in test [5] it was 16 µg/mL (≈ 31.8 µM).

For the compound `COc1ccc(C2=NOC3CN(c4c(F)cc5c(=O)c(C(=O)O)cn6c5c4OC[C@@H]6C)CC23)cc1` (stereo partly drawn) [ID No. 128, 7-[cis-3-(4-Methoxyphenyl)-3a,4,6,6a-tetrahydropyrrolo[3,4-d]isoxazol-5-yl]S-(−)-9,10-difluoro-2,3-dihydro-3-methyl-7-oxo-7H-pyrido-[1,2,3-de][1,4]-benzoxazine-6-carboxylic acid], the minimal inhibitory concentration (MIC) in test [1] turned out to be 1 µg/mL (≈ 2.09 µM); in test [2], 4 µg/mL (≈ 8.34 µM); in test [3] it was 0.12 µg/mL (≈ 0.25 µM); in test [4] it was 4 µg/mL (≈ 8.34 µM).

On to `O=C(O)c1cn(C2CC2)c2nc(N3CC4ON=C(CN5C(=O)c6ccccc6C5=O)C4C3)c(F)cc2c1=O` (stereo not shown) [ID No. 118, 1-Cyclopropyl-7-[3-(1,3-dioxo-1,3-dihydro-isoindol-2-ylmethyl)-3a,4,6,6a-tetrahydro-pyrrolo[3,4-d]isoxazol-5-yl]-6-fluoro-4-oxo-1,4-dihydro-[1,8]naphthyridine-3-carboxylic acid], for which the MIC in test [1] was 16 µg/mL (≈ 30.9 µM); in test [2], more than 16 µg/mL; in test [3], 2 µg/mL (≈ 3.86 µM); in test [4], more than 16 µg/mL; in test [5], more than 16 µg/mL.

As for `C[C@H]1COc2c(N3CC4ON=C(c5ccccn5)C4C3)c(F)cc3c(=O)c(C(=O)O)cn1c23` (stereo partly shown) [ID No. 129], the minimal inhibitory concentration (MIC) in test [1] is 1 µg/mL (≈ 2.22 µM); in test [2] it was 16 µg/mL (≈ 35.5 µM); in test [3] it was 0.06 µg/mL (≈ 0.133 µM); in test [4], 4 µg/mL (≈ 8.88 µM); in test [5], more than 16 µg/mL.

`COc1ccc(C2=NOC3CN(c4c(F)cc5c(=O)c(C(=O)O)cn(-c6nc(N)c(F)cc6F)c5c4Cl)CC23)cc1` (stereo not shown) [ID No. 133, 1-(6-Amino-3,5-difluoro-pyridin-2-yl)-8-chloro-6-fluoro-7-[3-(4-methoxy-phenyl)-3a,4,6,6a-tetrahydro-pyrrolo[3,4-d]isoxazol-5-yl]-4-oxo-1,4-dihydro-quinoline-3-carboxylic acid]: the MIC in test [1] was determined as 2 µg/mL (≈ 3.41 µM); in test [2], 8 µg/mL (≈ 13.7 µM); in test [3] it was 0.25 µg/mL (≈ 0.427 µM); in test [4] it was 16 µg/mL (≈ 27.3 µM).

Consider `CCOC(=O)C1=NOC2CN(c3nc4c(cc3F)c(=O)c(C(=O)O)cn4C3CC3)CC12` (stereo not shown) [ID No. 116, 1-Cyclopropyl-7-(3-ethoxycarbonyl-3a,4,6,6a-tetrahydro-pyrrolo[3,4-d]isoxazol-5-yl)-6-fluoro-4-oxo-1,4-dihydro-[1,8]naphthyridine-3-carboxylic acid], for which the MIC is 4 µg/mL (≈ 9.29 µM) in test [1]; more than 16 µg/mL in test [2]; 0.12 µg/mL (≈ 0.279 µM) in test [3]; more than 16 µg/mL in test [4]; more than 16 µg/mL in test [5].

With `O=C(O)c1cn(C2CC2)c2nc(N3CC4ON=C(c5cccnc5)C4C3)c(F)cc2c1=O` (stereo not shown) [ID No. 114, 1-Cyclopropyl-6-fluoro-4-oxo-7-(3-pyridin-3-yl-3a,4,6,6a-tetrahydro-pyrrolo[3,4-d]isoxazol-5-yl)-1,4-dihydro-[1,8]naphthyridine-3-carboxylic acid], the MIC in test [1] amounted to 1 µg/mL (≈ 2.3 µM); in test [2], 2 µg/mL (≈ 4.59 µM); in test [3], 0.12 µg/mL (≈ 0.276 µM); in test [4], 8 µg/mL (≈ 18.4 µM).

Regarding `C[C@H]1COc2c(N3CC4ON=C(CN)C4C3)c(F)cc3c(=O)c(C(=O)O)cn1c23` (stereo partly shown) [ID No. 204], the MIC is 16 µg/mL (≈ 39.8 µM) in test [1], more than 16 µg/mL in test [2], 0.25 µg/mL (≈ 0.621 µM) in test [3] and more than 16 µg/mL in test [4].

As for `O=C(O)c1cn(C2CC2)c2nc(N3CC4ON=C(c5ccc(Cl)cc5)C4C3)c(F)cc2c1=O` (stereo not shown) [ID No. 110, 7-[3-(4-Chloro-phenyl)-3a,4,6,6a-tetrahydro-pyrrolo[3,4-d]isoxazol-5-yl]-1-cyclopropyl-6-fluoro-4-oxo-1,4-dihydro-[1,8]naphthyridine-3-carboxylic acid], the MIC in test [1] came out at 0.5 µg/mL (≈ 1.07 µM); in test [2] it was 8 µg/mL (≈ 17.1 µM); in test [3], 0.06 µg/mL (≈ 0.128 µM).

Turning to `C[C@H]1COc2c(N3CC4ON=C(c5cccnc5)C4C3)c(F)cc3c(=O)c(C(=O)O)cn1c23` (stereo partly drawn) [ID No. 130, 7-[cis-3-(3-pyridyl)-3a,4,6,6a-tetrahydropyrrolo[3,4-d]isoxazol-5-yl]S-(−)-9,10-difluoro-2,3-dihydro-3-methyl-7-oxo-7H-pyrido-[1,2,3-de][1,4]-benzoxazine-6-carboxylic acid], the MIC was found to be 2 µg/mL (≈ 4.44 µM) in test [1], 16 µg/mL (≈ 35.5 µM) in test [2], 0.25 µg/mL (≈ 0.555 µM) in test [3] and 16 µg/mL (≈ 35.5 µM) in test [4].

`COc1ccc(C2=NOC3CN(c4c(F)cc5c(=O)c(C(=O)O)cn([C@@H]6C[C@@H]6F)c5c4OC)CC23)cc1` (relative stereo) [ID No. 126, 7-[cis-3-(4-Methoxyphenyl)-3a,4,6,6a-tetrahydropyrrolo[3,4-d]isoxazol-5-yl]-1-[(1R,2S)-2-fluorocyclopropyl]-6-fluoro-8-methoxy-4-oxo-1,4-dihydro-quinoline-3-carboxylic acid]: the minimum inhibitory concentration (MIC) in test [1] amounted to 0.5 µg/mL (≈ 0.978 µM); in test [2] it was 4 µg/mL (≈ 7.82 µM); in test [3], 0.03 µg/mL (≈ 0.0587 µM); in test [4], 2 µg/mL (≈ 3.91 µM).

Turning to `COc1c(N2CC3ON=C(CN)C3C2)c(F)cc2c(=O)c(C(=O)O)cn(C3CC3)c12` (stereo not shown) [ID No. 202], the MIC in test [1] was 1 µg/mL (≈ 2.4 µM); in test [2] it was 16 µg/mL (≈ 38.4 µM); in test [3], 0.06 µg/mL (≈ 0.144 µM); in test [4], more than 16 µg/mL.

As for `COc1c(N2CC3ON=C(CN)C3C2)c(F)cc2c(=O)c(C(=O)O)cn([C@@H]3C[C@@H]3F)c12` (stereo partly shown) [ID No. 203], the MIC in test [1] is 2 µg/mL (≈ 4.6 µM); in test [2], more than 16 µg/mL; in test [3], 0.12 µg/mL (≈ 0.276 µM); in test [4] it was more than 16 µg/mL.

As to `COc1ccc(C2=NO[C@H]3CN(c4c(F)cc5c(=O)c(C(=O)O)cn(C6CC6)c5c4OC)C[C@@H]23)cc1` (relative stereo) [ID No. 120, 7-[cis-3-(4-Methoxyphenyl)-3a,4,6,6a-tetrahydropyrrolo[3,4-d]isoxazol-5-yl]-1-cyclopropyl-8-methoxy-6-fluoro-4-oxo-1,4-dihydroquinoline-3-carboxylic acid], the MIC in test [1] turned out to be 1 µg/mL (≈ 2.03 µM); in test [2], 4 µg/mL (≈ 8.11 µM); in test [3], 0.06 µg/mL (≈ 0.122 µM); in test [4], 2 µg/mL (≈ 4.05 µM).
